{
  "source": "patent US20080132564A1",
  "about": "“MICELLAR DRUG DELIVERY VEHICLES AND PRECURSORS THERETO AND USES THEREOF” (ANGIOTECH INTERNATIONAL AG, priority 2001, published 2008)",
  "key": {"[1]": {"test": "Solubility of paclitaxel in organic solvents"}, "[2]": {"test": "Recovery of paclitaxel added to polymer mixtures after heating (reverse phase HPLC, UV detection)", "assay_type": "physicochemical", "description": "The desirability of removing unreacted starting materials and/or acidic reaction by-products can be seen by reference to the data in Table 1. […] According to the data, when paclitaxel is combined with a diblock copolymer having up to 2% residual monomer and up to 0.2 μmol/mg acid content (expressed as the number of protons titrated in a solution prepared by dissolving 1 mg of diblock copolymer in water), after heating, only 95% of the paclitaxel initially added to the mixture could be recovered, as quantified using a reverse phase HPLC assay with UV detection and a taxane optimized C18 column."}},
  "data": [
    {"smiles": "CC(=O)O[C@H]1C(=O)[C@@]2(C)[C@H]([C@H](OC(=O)c3ccccc3)[C@]3(O)C[C@H](OC(=O)[C@H](O)[C@@H](NC(=O)c4ccccc4)c4ccccc4)C(C)=C1C3(C)C)[C@]1(OC(C)=O)CO[C@@H]1C[C@@H]2O", "note": "[paclitaxel]", "values": [
      {"measurement": "amount of paclitaxel that may be dissolved in NMP", "setting": "[1]; in 1 mL of NMP", "value": 535, "unit": "mg"},
      {"measurement": "amount of paclitaxel that may be dissolved in ethanol", "setting": "[1]; in ethanol (volume not given)", "value": 26, "unit": "mg"},
      {"measurement": "paclitaxel initially added that could be recovered after heating", "setting": "[2]; combined with diblock copolymer having up to 2% residual monomer and up to 0.2 μmol/mg acid content", "value": 95, "unit": "%"},
      {"measurement": "paclitaxel recovered after heating", "setting": "[2]; combined with methoxypolyethylene glycol having no measured acidic components and no DL-lactide monomer", "value": 99, "unit": "%"},
      {"measurement": "paclitaxel that could be recovered after heating", "setting": "[2]; diblock copolymer with greatly reduced quantities of residual monomer and acidic components", "value": 98, "unit": "%"}
    ]}
  ]
}
